Laboratory results published in patent publication US4370339A, “Method for treating inflammatory conditions” (Abbott Laboratories, priority 1981, dated 1983).

How the values were obtained:
rats = assay: toxicity, fatality ratio in rats; format: in vivo; details: for Fatality Ratio: rats
Experimental: The lesser toxicity of the 1-alkaryl derivatives is illustrated by the data of Table 3, which gives the fatality ratio in rats when the compounds were administered in the indicated dosages.

carrageenin pleurisy = assay: modification of the carrageenin pleurisy assay; format: in vivo
From the text: Also tested for comparison was phenylbutazone, a compound known to have anti-inflammatory activity.

[1] = test system: reverse passive Arthus reaction; assay: reverse passive Arthus reaction in the rat; format: in vivo, rat (male Sprague-Dawley); details: oral, 100 mg/kg of body weight; lesion measured 4 h after anti-B.S.A.; groups of 4 rats
From the text: The anti-inflammatory activity of the compounds used in the invention was established using the reverse passive Arthus reaction in the rat as described by G. W. Carter and R. A. Krause in Federation Proceedings, Vol. 35, page 774, 1976. Although the carrageenin rat paw edema test (Winter et al., Proc. Soc. Exp. Biol. Med., 111, 554, 1962) can also be used to establish anti-inflammatory activity, the Arthus reaction, unlike carrageenin induced edema, is a well-characterized immune reaction which bears close resemblance to the pathogenesis of rheumatoid arthritis.
The Arthus reaction represents one of the oldest and best studied models of immunological injury. It is produced by the injection of antigen locally into a hyperimmunized animal or by the injection of a small amount of antibody into the skin of an animal that has just previously been given a large amount of soluble antigen intravenously. In both cases, the antigen and antibody become deposited in the walls of small venules. Plasma complement is rapidly bound and activated. […]
Thirty minutes after administration of the drug, each animal is injected intradermally with 0.05 ml of 1.44% anti-B.S.A. into the dorsal skin. […] Two perpendicular diameters of each lesion are measured. […]

NC1=NN(c2cccc(C(F)(F)F)c2)CC1 [1-(m-trifluoromethylphenyl)-3-amino-2-pyrazoline, reference compound]
Fatality Ratio (rats; 285 mg/kg): 8/10

NC1=NN(Cc2ccccc2)CC1 [1-benzyl-3-amino-2-pyrazoline]
% Inhibition Cells (carrageenin pleurisy; 120 mg/kg): 55% | % Inhibition Volume Exudate (carrageenin pleurisy; 120 mg/kg): 76% | Fatality Ratio (rats; 512 mg/kg): 0/10 | toxicity relative to 1-aryl derivatives, in words (rats; compared with 1-aryl derivatives of 3-amino-2-pyrazoline): markedly less toxic | % Inhibition Of Lesion [1]: 57%

O=C1CCN(Cc2ccccc2)N1 [1-benzyl-3-pyrazolidinone, reference compound]
% Inhibition Of Lesion [1]: 28%

CCCCC1C(=O)N(c2ccccc2)N(c2ccccc2)C1=O [phenylbutazone, reference compound]
% Inhibition Cells (carrageenin pleurisy; 100 mg/kg): 13% | % Inhibition Volume Exudate (carrageenin pleurisy; 100 mg/kg): 59%
